The values that follow come from patent US20250205184A1, “COLD COMPRESS SPRAY FOR RELIEVING GOUT AND PREPARATION METHOD THEREOF” (priority 2023, published 2025).

The experiment relates to ankle joint swelling of rats caused by sodium urate crystals. The experiment can be described thus: Acute plantar/ankle joint swelling of rat caused by sodium urate crystals. The experiment is classed as in vivo. To be noted: X ± SD, n = 9. The method, then:
A process of preparing sodium urate crystallization and a sodium urate solution is as follows: 2 g of uric acid are added into 400 mL of boiling water to obtain an uric acid solution; a pH value of the uric acid solution is adjusted to 7.4 by using NaOH (1N) to obtain an adjusted solution; the adjusted solution is heated to a temperature of 95° C. to obtain a heated solution; then the heated solution is cooled and stirred gently at a room temperature to obtain a cooled solution; the cooled solution is allowed to stand for 4-6 hours at 4° C. to precipitate flocculent precipitates; microcrystalline sodium urate is obtained by filtering, and the microcrystalline sodium urate is sterilized at a high temperature of 80° C. 1000 milligrams (mg) of the sodium urate are ground fully to obtain sodium urate powder, and the sodium urate powder is added into 20 mL of sterile physiological saline to prepare a suspension with a concentration of 50 g/L (5%).
A process of grouping and administration is as follows: rats are adaptively fed for 3 days and randomly divided into 7 groups based on body weights. The 7 groups include a model control group, a positive drug indomethacin group, a first group, a second group, and a third group, a first comparison group, and a second comparison group. One hour before inflammation, the positive drug indomethacin group is administered with indomethacin through gavage (10 mL/kg). The first group is immediately administered with the cold compress spray (0.1 mL for each rat) obtained in the embodiment 1 after modeling; the second group is immediately administered with the cold compress spray (0.1 mL for each rat) obtained in the embodiment 2 after modeling; the third group is immediately administered with the cold compress spray (0.1 mL for each rat) obtained in the embodiment 3 after modeling; the first comparison group is immediately administered with the cold compress spray (0.1 mL for each rat) obtained in the comparative embodiment 1 after modeling; the second comparison group is immediately administered with the cold compress spray (0.1 mL for each rat) obtained in the comparative embodiment 2 after modeling; and the model control group is immediately administered with an excipient (0.1 mL for each rat) after modeling. Furthermore, after inflammation, the first group, the second group, the third group, the first comparison group, and the second comparison group are administered with corresponding cold compress sprays again after measurements of joint swelling at 6, 12, and 24 hours.
A process of modeling is as follows: an area around an ankle joint of a right hind limb of each rat is marked with a marker pen, and a joint circumference is measured as a normal value using a plantar volume meter. 0.2 mL of 5% sodium urate suspension are injected (the joint of each rat is extended and a needle is inserted at 45 degrees) into a joint cavity on a dorsal side of the right ankle joint of each rat of each group. Here, the modeling of each group is completed.
Results of joint swelling are as follows: a volume of the right ankle joint of each rat at 6, 12, 24, and 48 hours after inflammation is measured.

As to `COc1ccc2c(c1)c(CC(=O)O)c(C)n2C(=O)c1ccc(Cl)cc1` [Indomethacin, indomethacin], the “Volume of after modeling, 6 h” value (right ankle joint volume 6 h after inflammation) was 2.42 ± 0.15 mL. Also, for the setting “right ankle joint volume 12 h after inflammation”, the “Volume of after modeling, 12 h” value was determined as 2.29 ± 0.30 mL. In addition, the “Volume of after modeling, 24 h” value (right ankle joint volume 24 h after inflammation) is on record as 2.18 ± 0.09 mL. For the same compound, the “Volume of after modeling, 48 h” value (right ankle joint volume 48 h after inflammation) worked out at 2.16 ± 0.14 mL. This compound also gave a Volume before modeling (right ankle joint volume, baseline before sodium urate injection) of 2.12 ± 0.21 mL.
